# In US12371454B2, “Cyclic peptide compound having Kras inhibitory action” (priority 2019, dated 2025):
# Positions of bridges follow the written chain, without caps; N, C: chain ends. Non-standard residues stand in square brackets, D forms with d. Residues, ends and D or L forms follow the SMILES beside them. *: point of attachment. hPhe(3,5-F2-4-CF3) = N[C@@H](CCc1cc(F)c(C(F)(F)F)c(F)c1)C(=O)O; hPhe(3-Cl-4-CF3) = N[C@@H](CCc1ccc(C(F)(F)F)c(Cl)c1)C(=O)O; NMePhe(4-Br) = CN[C@@H](Cc1ccc(Br)cc1)C(=O)O; NMePhe(4-Me) = CN[C@@H](Cc1ccc(C)cc1)C(=O)O; NMePhe(4-I) = CN[C@@H](Cc1ccc(I)cc1)C(=O)O; NMeNva(5,5-F2) = CN[C@@H](CCC(F)F)C(=O)O; NMe4Pal = CN[C@@H](Cc1ccncc1)C(=O)O; NMeY = CN[C@@H](Cc1ccc(O)cc1)C(=O)O; NMeCha = CN[C@@H](CC1CCCCC1)C(=O)O; NMeChg = CN[C@H](C(=O)O)C1CCCCC1; NMeI = CC[C@H](C)[C@H](NC)C(=O)O; dNMeF = CN[C@H](Cc1ccccc1)C(=O)O; NMeD = CN[C@@H](CC(=O)O)C(=O)O; NMeL = CN[C@@H](CC(C)C)C(=O)O; NMeA = CN[C@@H](C)C(=O)O; Piperidide = C1CCN(*)CC1; Pyrrolidide = C1CCN(*)C1; Ac5c = NC1(C(=O)O)CCCC1; Aze = O=C(O)[C@@H]1CCN1; Ac4c = NC1(C(=O)O)CCC1; CF3 = FC(F)(F)*; Sar = CNCC(=O)O
# Molecular target: T1, Kras and SOS1 (biotin-tagged human Kras loaded with GDP, His-tagged human SOS1) (Homo sapiens, UniProt P01116, G12D)
# T1 construct: made in house; host or cells: E. coli (stated for Kras only)
# T1 sequence (P01116 1-188 isoform P01116-2 G12D): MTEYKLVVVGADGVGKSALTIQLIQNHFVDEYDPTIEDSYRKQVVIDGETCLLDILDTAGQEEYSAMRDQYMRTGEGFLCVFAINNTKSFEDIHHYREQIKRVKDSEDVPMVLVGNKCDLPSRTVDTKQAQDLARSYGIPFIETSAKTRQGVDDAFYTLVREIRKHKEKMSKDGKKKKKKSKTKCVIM
# Test: Protein-protein interaction inhibition between Kras and SOS1 (KrasGl2D-SOS PPI) using AlphaScreen
# Format: binding
# Conditions: AlphaScreen; biotin-tagged human Kras loaded with GDP, His-tagged human SOS1; read-out: KRAS G12D-SOS PPI IC50
# In short: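 Binding between SOS1 and Kras is detected as bead-proximity luminescence: illuminate Ni-conjugated donors (680 nm), collect 520-620 nm emission from streptavidin-conjugated acceptors; Kras carries biotin and GDP loaded after purification, SOS1 carries a His tag.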
row,Structure (SMILES),IC50 [nM]
1,CC[C@H](C)[C@@H]1NC(=O)[C@H](CC(C)C)N(C)C(=O)C[C@@H](C(=O)N(C)C)N(C)C(=O)[C@H]([C@@H](C)CC)N(C)C(=O)C2(CCCC2)NC(=O)[C@H](Cc2ccc(I)cc2)N(C)C(=O)[C@H](CCc2ccc(C(F)(F)F)c(Cl)c2)NC(=O)CN(C)C(=O)[C@H](Cc2ccc(C)cc2)N(C)C(=O)[C@@H]2CCN2C(=O)[C@H](C)N(C)C1=O [Compound 1888] ([NMeL]I[NMeA][Aze][NMePhe(4-Me)][Sar][hPhe(3-Cl-4-CF3)][NMePhe(4-I)][Ac5c][NMeI][NMeD]-NMe2; lactam N-11),53
2,CC[C@H](C)[C@@H]1NC(=O)[C@H](C)N(C)C(=O)C[C@@H](C(=O)N(C)C)N(C)C(=O)[C@H]([C@@H](C)CC)N(C)C(=O)C2(CCCC2)NC(=O)[C@@H](Cc2ccccc2)N(C)C(=O)[C@H](CCc2ccc(C(F)(F)F)c(Cl)c2)NC(=O)CN(C)C(=O)[C@H](Cc2ccc(C)cc2)N(C)C(=O)[C@@H]2CCN2C(=O)[C@H](C)N(C)C1=O [Compound 1889] ([NMeA]I[NMeA][Aze][NMePhe(4-Me)][Sar][hPhe(3-Cl-4-CF3)][dNMeF][Ac5c][NMeI][NMeD]-NMe2; lactam N-11),98
3,CC[C@H](C)[C@@H]1NC(=O)[C@H](C)N(C)C(=O)C[C@@H](C(=O)N(C)C)N(C)C(=O)[C@H]([C@@H](C)CC)N(C)C(=O)C2(CCCC2)NC(=O)[C@H](Cc2ccc(Br)cc2)N(C)C(=O)[C@H](CCc2ccc(C(F)(F)F)c(Cl)c2)NC(=O)CN(C)C(=O)[C@H](Cc2ccc(C)cc2)N(C)C(=O)[C@@H]2CCN2C(=O)[C@H](C)N(C)C1=O [Compound 1893] ([NMeA]I[NMeA][Aze][NMePhe(4-Me)][Sar][hPhe(3-Cl-4-CF3)][NMePhe(4-Br)][Ac5c][NMeI][NMeD]-NMe2; lactam N-11),14
4,CC[C@H](C)[C@@H]1NC(=O)[C@H](CC(C)C)N(C)C(=O)C[C@@H](C(=O)N2CCCC2)N(C)C(=O)[C@H](C2CCCCC2)N(C)C(=O)C2(CCC2)NC(=O)[C@@H]2CCCN2C(=O)[C@H](CCc2ccc(C(F)(F)F)c(Cl)c2)NC(=O)CN(C)C(=O)[C@H](CC2CCCCC2)N(C)C(=O)CN(C)C(=O)CN(C)C1=O [Compound 1894] ([NMeL]I[Sar][Sar][NMeCha][Sar][hPhe(3-Cl-4-CF3)]P[Ac4c][NMeChg][NMeD]-Pyrrolidide; lactam N-11),0.55
5,"CC[C@H](C)[C@@H]1NC(=O)[C@H](CC(C)C)N(C)C(=O)C[C@@H](C(=O)N2CCCCC2)N(C)C(=O)[C@H]([C@@H](C)CC)N(C)C(=O)C2(CCCC2)NC(=O)[C@@H](Cc2ccccc2)N(C)C(=O)[C@H](CCc2cc(F)c(C(F)(F)F)c(F)c2)NC(=O)CN(C)C(=O)[C@H](Cc2ccc(C)cc2)N(C)C(=O)[C@@H]2CCN2C(=O)[C@H](C)N(C)C1=O [Compound 1895] ([NMeL]I[NMeA][Aze][NMePhe(4-Me)][Sar][hPhe(3,5-F2-4-CF3)][dNMeF][Ac5c][NMeI][NMeD]-Piperidide; lactam N-11)",360
6,CC[C@H](C)[C@@H]1NC(=O)[C@H](CC(C)C)N(C)C(=O)C[C@@H](C(=O)N(C)C)N(C)C(=O)[C@H]([C@@H](C)CC)N(C)C(=O)[C@H](C(C)C)NC(=O)[C@H](Cc2ccncc2)N(C)C(=O)[C@H](CCc2ccc(C(F)(F)F)c(Cl)c2)NC(=O)CN(C)C(=O)[C@H](Cc2ccc(C)cc2)N(C)C(=O)[C@@H]2CCN2C(=O)[C@H](C)N(C)C1=O [Compound 1897] ([NMeL]I[NMeA][Aze][NMePhe(4-Me)][Sar][hPhe(3-Cl-4-CF3)][NMe4Pal]V[NMeI][NMeD]-NMe2; lactam N-11),9.9
7,"CC[C@H](C)[C@@H]1NC(=O)[C@H](CC(C)C)N(C)C(=O)C[C@@H](C(=O)N(C)C)N(C)C(=O)[C@H]([C@@H](C)CC)N(C)C(=O)C2(CCCC2)NC(=O)[C@H](CCC(F)F)N(C)C(=O)[C@H](CCc2ccc(C(F)(F)F)c(Cl)c2)NC(=O)CN(C)C(=O)[C@H](Cc2ccc(C)cc2)N(C)C(=O)[C@@H]2CCN2C(=O)[C@H](C)N(C)C1=O [Compound 1898] ([NMeL]I[NMeA][Aze][NMePhe(4-Me)][Sar][hPhe(3-Cl-4-CF3)][NMeNva(5,5-F2)][Ac5c][NMeI][NMeD]-NMe2; lactam N-11)",0.93
8,CC[C@H](C)[C@@H]1NC(=O)[C@H](CC(C)C)N(C)C(=O)C[C@@H](C(=O)N(C)C)N(C)C(=O)[C@H]([C@@H](C)CC)N(C)C(=O)C2(CCCC2)NC(=O)[C@H](Cc2ccc(OC(F)(F)F)cc2)N(C)C(=O)[C@H](CCc2ccc(C(F)(F)F)c(Cl)c2)NC(=O)CN(C)C(=O)[C@H](Cc2ccc(C)cc2)N(C)C(=O)[C@@H]2CCN2C(=O)[C@H](C)N(C)C1=O [Compound 1902] ([NMeL]I[NMeA][Aze][NMePhe(4-Me)][Sar][hPhe(3-Cl-4-CF3)][NMeY](CF3)[Ac5c][NMeI][NMeD]-NMe2; lactam N-11),54
9,CC[C@H](C)[C@@H]1NC(=O)[C@H](C)N(C)C(=O)C[C@@H](C(=O)N(C)C)N(C)C(=O)[C@H]([C@@H](C)CC)N(C)C(=O)C2(CCCC2)NC(=O)[C@H](Cc2ccc(OC)cc2)N(C)C(=O)[C@H](CCc2ccc(C(F)(F)F)c(Cl)c2)NC(=O)CN(C)C(=O)[C@H](Cc2ccc(C)cc2)N(C)C(=O)[C@@H]2CCN2C(=O)[C@H](C)N(C)C1=O [Compound 1903] ([NMeA]I[NMeA][Aze][NMePhe(4-Me)][Sar][hPhe(3-Cl-4-CF3)][NMeY](Me)[Ac5c][NMeI][NMeD]-NMe2; lactam N-11),4
